Results: US8686113B2 (priority 2009, dated 2014)
Values after ≈ are worked out from the molar mass of the structure shown. Where two headings read alike, the source gives them in different places. Non-standard residues stand in square brackets, D forms with d. Residues, ends and D or L forms follow the SMILES beside them. Hyp = O=C(O)[C@@H]1C[C@@H](O)CN1; Tle = CC(C)(C)[C@H](N)C(=O)O; Orn = NCCC[C@H](N)C(=O)O

Legend:
[1] = test system: Escherichia coli DSM 10233
Experimental: The minimum inhibitory concentrations (MIC) of the antimicrobial peptides and peptide derivatives were determined in microdilution assays. These used a continuous peptide dilution in sterile flat-bottomed 96-well microtiter plates (polystyrene, Greiner Bio-One GmbH, Frickenhausen, Germany) and a total volume of 100 μL per well. The aqueous peptide or peptidomimetic solutions were diluted with 1% TSB water, to obtain a final concentration of 256 μg/mL. 50 μL of the peptide or peptidomimetic solution was pipetted into the first well of each series and stirred. From this solution, 50 μL was transferred to the second well, stirred and again 50 μL was transferred to the next well, and so on. A double dilution series is obtained, beginning at 256 μg/mL in the first well to 125 ng/mL in the twelfth well. The bacteria, e.g. E. coli BL21 A1, were cultured overnight at 37° C. in nutrient broth (NB, Carl Roth GmbH+Co. KG, Karlsruhe, Germany). 50 μL of a 5×10^6 bacteria/mL suspension in 1% TSB was added to each well of the microtiter plate and thus a final concentration of the peptides or peptidomimetics from 128 μg/mL (well 1) to 62.5 ng/mL (well 12) was established in each series. The plates were incubated at 37° C. for 20 h and then the absorption was measured at 595 nm with a TECAN microtiter plate spectrophotometer (Tecan Trading AG, Mannedorf, Switzerland). The MIC values of all peptides and peptidomimetics were determined in triplicate. Sterile water was used as negative control.
The peptides shown in Table 8 were investigated for their MIC against pathogenic bacteria such as E. coli DSM 10233, K. pneumoniae DSM 681 and P. aeruginosa DSM 3227.

E. coli BL21 A1 = assay type: cell-based, Escherichia coli
How it was run: (§1)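 Broth microdilution in 1% TSB with twofold peptide series, final 128 μg/mL to 62.5 ng/mL, against 5×10^6 bacteria/mL stock suspension added 1:1. Incubated 20 h at 37 °C, growth read by absorbance at 595 nm; MIC is the lowest concentration with no growth, determined in triplicate.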

[2] = mouse, serum
Experimental: For this, the peptides and peptidomimetics were dissolved in water, mouse serum was added and the peptide concentration was adjusted to 75 μg/mL. While shaking continuously, the mixture was incubated at 37° C. After 0, 30, 60, 120, 240 and 360 minutes, in each case an aliquot was taken and mixed with 15% aqueous trichloroacetic acid (Carl Roth GmbH & Co. KG; Karlsruhe, Germany). After incubation on ice for a further 10 minutes, the precipitated serum proteins were centrifuged off (5 min, 13400 rpm, MiniSpin, Eppendorf AG, Hamburg, Germany). The supernatant was removed, neutralized with 1 mol/L aqueous sodium hydroxide solution (Fluke Chemie GmbH, Buchs, Switzerland) and stored at −20° C. until analysis.
The supernatants were analyzed by RP-HPLC with a linear acetonitrile gradient (Biosolve BV, Valkenswaard, The Netherlands) in the presence of 0.1% trifluoroacetic acid (TFA, UV-grade, Fluka Chemie GmbH, Buchs, Switzerland) as ion-pairing reagent. The fractions were co-crystallized with α-cyanohydroxycinnamic acid (Bruker Daltonik GmbH; Bremen, Germany) as matrix (5.3 mg/mL in 50% acetonitrile in 0.1% aqueous TFA) and were analyzed with a tandem mass spectrometer (MALDI-TOF/TOF-MS, 4700 Proteomics Analyzer; Applied Biosystems GmbH, Weiterstadt, Germany) in the positive-ion reflector mode. The proportion of intact peptides and their degradation products or metabolites could thus be identified and quantified at the individual time points. The control used was 25% aqueous mouse serum, which was analyzed in parallel for the same time intervals.

M. luteus 10240 = experiment: Growth inhibition assay (microdilution MIC); assay type: cell-based, Micrococcus luteus; conditions: 10240, 20 h
How it was run: as §1

[3] = Stability against bacterial proteases in E. coli lysate; assay type: in vitro ADME; conditions: E. coli lysate with 0.5 mg/mL protein concentration, 37° C.
Experimental: For the bacterial lysate, 500 mL of nutrient broth (Carl Roth GmbH+Co. KG, Karlsruhe) was inoculated with E. coli BL21 A1 and incubated overnight at 37° C. 2×250 mL bacterial suspension were centrifuged for 25 min at 5000 rpm and 4° C. in a Beckman Avanti™ J-20-XP centrifuge with JLA-10.500 rotor (Beckman Coulter, Fullerton, U.S.A.). The pellets were each suspended in 30 mL PBS (pH 7.4) and centrifuged again in a Beckman Allegra™ 2IR centrifuge (Beckman Coulter, Fullerton, U.S.A.). The pellets were each suspended in 10 mL PBS and were disrupted with ultrasound (Vibra-cell™ microtip, Fisher Bioblock Scientific, Illkirch, France) 2×5 min (750 W; amplitude 40%; 2 s on/3 s off) on ice. The bacterial lysates were combined and 1 mL aliquots were centrifuged at 15400 rpm for 20 min at 4° C. (Beckman Allegra™). The supernatants were removed and stored at −20° C. The protein content of the bacterial lysate was determined by protein determination according to Bradford.
A solution of 0.15 μg/mL peptide in bacterial lysate with protein content of 1.5 mg/mL or 0.5 mg/mL was incubated at 37° C. After 0, 30, 60, 120, 240 or 360 min, 200 μL was taken from each and the proteins were precipitated with 50 μL of 15% trichloroacetic acid. Then it was incubated for 10 min at 4° C. and then centrifuged for 5 min at 13000 rpm in a Minispin desktop centrifuge. 210 μL was taken from the supernatant and neutralized with 1 mol/L sodium hydroxide solution. The intact peptide and the degradation products were analyzed by HPLC. 60 μL of 3% aqueous acetonitrile with 0.1% trifluoroacetic acid (TFA) was added to the solution and 250 μL of the mixture was injected. After chromatographic separation, the constituents were identified by MALDI-TOF-MS,
In order to investigate the stability against bacterial proteases, a lysate was prepared from an overnight culture of E. coli BL21 A1 and the peptides were incubated in it. Using Bradford protein determination, the protein concentration was adjusted to 0.5 or 1.5 mg/mL.

[4] = Half-life in 25% mouse serum, 25% aqueous mouse serum, 37° C., 75 μg/mL peptide
[5] = half-life in 25% aqueous mouse serum, 25% serum

CC[C@H](C)[C@H](NC(=O)[C@@H]1C[C@@H](O)CN1C(=O)[C@H](CCCNC(=N)N)NC(=O)[C@@H]1CCCN1C(=O)[C@@H]1CCCN1C(=O)[C@H](CCCNC(=N)N)NC(=O)[C@@H]1CCCN1C(=O)[C@H](CCCNC(=N)N)NC(=O)[C@@H]1CCCN1C(=O)[C@H](CC(C)C)NC(=O)[C@H](Cc1ccc(O)cc1)NC(=O)[C@@H]1CCCN1C(=O)[C@@H]1CCCN1C(=O)[C@H](CCCCN)NC(=O)[C@H](CC(=O)O)NC(=O)[C@@H](N)C(C)C)C(=O)N[C@@H](Cc1ccc(O)cc1)C(=O)N[C@@H](CC(N)=O)C(=O)N[C@@H](CCCN)C(N)=O [SEQ ID NO. 63] (H-VDKPPYLPRPRPPR[Hyp]IYN[Orn]-NH2)
MIC E. coli DSM 10233 [1]: 1 to 4 µg/mL
MIC values against E. coli (E. coli BL21 A1): 4 µg/mL (≈ 1.74 µM)
MIC E. coli BL21 A1 (E. coli BL21 A1; 1% TSB, 20 h at 37° C.): 4 µg/mL (≈ 1.74 µM)
half-life [2, 4]: > 6 h
half-life [2, 5]: > 6 h
MIC M. luteus 10240 (M. luteus 10240): 8 µg/mL (≈ 3.47 µM)

CC[C@H](C)[C@H](NC(=O)[C@H](CCCN)NC(=O)[C@H](CCCNC(=N)N)NC(=O)[C@@H]1CCCN1C(=O)[C@@H]1CCCN1C(=O)[C@H](CCCNC(=N)N)NC(=O)[C@@H]1CCCN1C(=O)[C@H](CCCNC(=N)N)NC(=O)[C@@H]1CCCN1C(=O)[C@H](CC(C)C)NC(=O)[C@H](Cc1ccc(O)cc1)NC(=O)[C@@H]1CCCN1C(=O)[C@@H]1CCCN1C(=O)[C@H](CCCCN)NC(=O)[C@H](CC(=O)O)NC(=O)[C@@H](N)C(C)C)C(=O)N[C@@H](Cc1ccc(O)cc1)C(=O)N[C@@H](CC(N)=O)C(=O)N[C@@H](CCCN)C(N)=O [SEQ ID NO. 72, VDKPPYLPRPRPPROIYNO-NH2] (H-VDKPPYLPRPRPPR[Orn]IYN[Orn]-NH2)
MIC values against E. coli (E. coli BL21 A1): 8 µg/mL (≈ 3.47 µM)
MIC E. coli BL21 A1 (E. coli BL21 A1; BL21, 20 h): 8 µg/mL (≈ 3.47 µM)
half-life [2, 4]: > 6 h
half-life [2, 5]: > 6 h
half-life [3]: 1.92 h

CC[C@H](C)[C@H](NC(=O)[C@H](CCCN)NC(=O)[C@H](CCCNC(=N)N)NC(=O)[C@@H]1C[C@@H](O)CN1C(=O)[C@@H]1CCCN1C(=O)[C@H](CCCNC(=N)N)NC(=O)[C@@H]1CCCN1C(=O)[C@H](CCCNC(=N)N)NC(=O)[C@@H]1CCCN1C(=O)[C@H](CC(C)C)NC(=O)[C@H](Cc1ccc(O)cc1)NC(=O)[C@@H]1CCCN1C(=O)[C@@H]1CCCN1C(=O)[C@H](CCCCN)NC(=O)[C@H](CC(=O)O)NC(=O)[C@@H](N)C(C)C)C(=O)N[C@@H](Cc1ccc(O)cc1)C(=O)N[C@@H](CC(N)=O)C(=O)N[C@@H](CCCN)C(N)=O [SEQ ID NO. 107] (H-VDKPPYLPRPRP[Hyp]R[Orn]IYN[Orn]-NH2)
half-life [3]: 3.58 h

CC[C@H](C)[C@H](NC(=O)[C@@H]1C[C@@H](O)CN1C(=O)[C@H](CCCNC(=N)N)NC(=O)[C@@H]1C[C@@H](O)CN1C(=O)[C@@H]1CCCN1C(=O)[C@H](CCCNC(=N)N)NC(=O)[C@@H]1CCCN1C(=O)[C@H](CCCNC(=N)N)NC(=O)[C@@H]1CCCN1C(=O)[C@H](CC(C)C)NC(=O)[C@H](Cc1ccc(O)cc1)NC(=O)[C@@H]1CCCN1C(=O)[C@@H]1CCCN1C(=O)[C@H](CCCCN)NC(=O)[C@H](CC(=O)O)NC(=O)[C@@H](N)C(C)C)C(=O)N[C@@H](Cc1ccc(O)cc1)C(=O)N[C@@H](CC(N)=O)C(=O)N[C@@H](CCCN)C(N)=O [SEQ ID NO. 108] (H-VDKPPYLPRPRP[Hyp]R[Hyp]IYN[Orn]-NH2)
MIC E. coli DSM 10233 [1]: 1 to 4 µg/mL
MIC E. coli BL21 A1 (E. coli BL21 A1; 1% TSB, 20 h at 37° C.): 2 µg/mL (≈ 0.862 µM)

CC(C)C[C@H](NC(=O)[C@H](Cc1ccc(O)cc1)NC(=O)[C@@H]1CCCN1C(=O)[C@@H]1CCCN1C(=O)[C@H](CCCCN)NC(=O)[C@H](CC(=O)O)NC(=O)[C@@H](N)C(C)C)C(=O)N1CCC[C@H]1C(=O)N[C@@H](CCCNC(=N)N)C(=O)N1CCC[C@H]1C(=O)N[C@@H](CCCNC(=N)N)C(=O)N1CCC[C@H]1C(=O)N1CCC[C@H]1C(=O)N[C@@H](CCCNC(=N)N)C(=O)N[C@@H](CCCN)C(=O)N[C@H](C(=O)N[C@@H](Cc1ccc(O)cc1)C(=O)N[C@@H](CC(N)=O)C(=O)N[C@@H](CCCN)C(N)=O)C(C)(C)C [SEQ ID NO. 109, VDKPPYLPRPRPPRO-Tle-YNO-NH2] (H-VDKPPYLPRPRPPR[Orn][Tle]YN[Orn]-NH2)
half-life [3]: > 4 h

CC(C)C[C@H](NC(=O)[C@H](Cc1ccc(O)cc1)NC(=O)[C@@H]1CCCN1C(=O)[C@@H]1CCCN1C(=O)[C@H](CCCCN)NC(=O)[C@H](CC(=O)O)NC(=O)[C@@H](N)C(C)C)C(=O)N1CCC[C@H]1C(=O)N[C@@H](CCCNC(=N)N)C(=O)N1CCC[C@H]1C(=O)N[C@@H](CCCNC(=N)N)C(=O)N1CCC[C@H]1C(=O)N1C[C@H](O)C[C@H]1C(=O)N[C@@H](CCCNC(=N)N)C(=O)N1C[C@H](O)C[C@H]1C(=O)N[C@H](C(=O)N[C@@H](Cc1ccc(O)cc1)C(=O)N[C@@H](CC(N)=O)C(=O)N[C@@H](CCCN)C(N)=O)C(C)(C)C [SEQ ID NO. 110] (H-VDKPPYLPRPRP[Hyp]R[Hyp][Tle]YN[Orn]-NH2)
MIC E. coli BL21 A1 (E. coli BL21 A1; 1% TSB, 20 h at 37° C.): 2 µg/mL (≈ 0.862 µM)
half-life [3]: > 4 h

CC[C@H](C)[C@H](NC(=O)[C@H](Cc1ccc(O)cc1)NC(=O)[C@H](CC(N)=O)NC(=O)[C@@H](N)CCCN)C(=O)N[C@@H](CCCN)C(=O)N[C@@H](CCCNC(=N)N)C(=O)N1CCC[C@H]1C(=O)N1CCC[C@H]1C(=O)N[C@@H](CCCNC(=N)N)C(=O)N1CCC[C@H]1C(=O)N[C@@H](CCCNC(=N)N)C(=O)N1CCC[C@H]1C(=O)N[C@@H](CC(C)C)C(=O)N[C@@H](Cc1ccc(O)cc1)C(=O)N1CCC[C@H]1C(=O)N1CCC[C@H]1C(=O)N[C@@H](CCCCN)C(=O)N[C@@H](CC(=O)O)C(=O)N[C@H](C(N)=O)C(C)C [SEQ ID NO. 113, ONYIORPPRPRPLYPPKDV-NH2] (H-[Orn]NYI[Orn]RPPRPRPLYPPKDV-NH2)
MIC E. coli DSM 10233 [1]: 1 to 4 µg/mL

CC[C@H](C)[C@H](NC(=O)[C@H](Cc1ccc(O)cc1)NC(=O)[C@H](CC(N)=O)NC(=O)[C@@H](N)CCCN)C(=O)N1C[C@H](O)C[C@H]1C(=O)N[C@@H](CCCNC(=N)N)C(=O)N1CCC[C@H]1C(=O)N1CCC[C@H]1C(=O)N[C@@H](CCCNC(=N)N)C(=O)N1CCC[C@H]1C(=O)N[C@@H](CCCNC(=N)N)C(=O)N1CCC[C@H]1C(=O)N[C@@H](CC(C)C)C(=O)N[C@@H](Cc1ccc(O)cc1)C(=O)N1CCC[C@H]1C(=O)N1CCC[C@H]1C(=O)N[C@@H](CCCCN)C(=O)N[C@@H](CC(=O)O)C(=O)N[C@H](C(N)=O)C(C)C [SEQ ID NO. 114] (H-[Orn]NYI[Hyp]RPPRPRPLYPPKDV-NH2)
MIC E. coli DSM 10233 [1]: 1 to 4 µg/mL

CC(C)C[C@H](NC(=O)[C@H](CCCN)NC(=O)[C@H](CCCNC(=N)N)NC(=O)[C@@H]1CCCN1C(=O)[C@@H]1CCCN1C(=O)[C@H](CCCNC(=N)N)NC(=O)[C@@H]1CCCN1C(=O)[C@H](CCCNC(=N)N)NC(=O)[C@@H]1CCCN1C(=O)[C@H](CC(C)C)NC(=O)[C@H](Cc1ccc(O)cc1)NC(=O)[C@@H]1CCCN1C(=O)[C@@H]1CCCN1C(=O)[C@H](CCCCN)NC(=O)[C@H](CC(=O)O)NC(=O)[C@@H](N)C(C)C)C(=O)N[C@@H](Cc1ccc(O)cc1)C(=O)N[C@@H](CC(N)=O)C(=O)N[C@@H](CCCN)C(N)=O [compound 73] (H-VDKPPYLPRPRPPR[Orn]LYN[Orn]-NH2)
MIC E. coli BL21 A1 (E. coli BL21 A1; BL21, 20 h): 8 µg/mL (≈ 3.47 µM)
half-life [3]: 1.5 h
MIC M. luteus 10240 (M. luteus 10240): 16 µg/mL (≈ 6.94 µM)
